How the values were obtained:
Friend leukemia virus [1] = experiment: Test 3: survival rate of mice in lethal FLV infection; assay type: in vivo; details: 42 days
Method: Friend leukemia virus FLV) was prepared as a 20% suspension of infected C3H/HeN spleen in Hank's balanced saline and 0.2 ml/head of the FLV preparation was challenged intraperitoneally to mice in groups of 12. The viruses were challenged in amounts large enough to cause death within a short time.
FK-565 (1, 0.01 mg/kg) was given intravenously once a day on days 1, 4, 7, 11, 14, 18, 21 and 25 (total: 8 doses).
The mice were given the two drugs according to the same dosing schedules.

[2] = therapeutic dose of AZT; cited from earlier work
Friend leukemia virus [3] = experiment: Test 1: splenomegaly by Friend leukemia virus in mice (severe infection); assay type: in vivo, C3H/HeN mice
Method: (§1) Animals: Male C3H/HeN strain mice aged 5 weeks were used in groups of 10. The animals were housed in an isolation room at 21°-25° C. and supplied with food and water at libitum.
Virus and Induction of splenomegaly: Friend leukemia virus (FLV) was prepared as a 10% suspension of infected C3H/HeN spleen in Hank's balanced saline and was originally supplied by Kitazato University. Following centrifugation (7,000 rpm for 20 mins.) the virus preparation was frozen and stored at -70° C. 0.2 ml/head of FLV diluted 2-, 5-, or 10-fold to induce infection of varying severity was challenged intraperitoneally in mice. […]

Friend leukemia virus [4] = experiment: Test 2: splenomegaly by FLV in mice, same method as Test 1 with other doses; assay type: in vivo, C3H/HeN mice; details: day 14
Method: as §1
Virus and Induction of splenomegaly: Friend leukemia virus (FLV) was prepared as a 10% suspension of infected C3H/HeN spleen in Hank's balanced saline and was originally supplied by Kitazato University. Following centrifugation (7,000 rpm for 20 mins.) the virus preparation was frozen and stored at -70° C. 0.2 ml/head of FLV diluted 2-, 5-, or 10-fold to induce infection of varying severity was challenged intraperitoneally in mice.
Dosing schedules: FK-565 was given intravenously or orally in doses of 0.01 mg/kg to 1 mg/kg 4 hours after challenge and once on days 3, 7, 11 (total 4 doses).

[5] = tested on: Rauscher murine leukemia virus complex(RLV); details: mice infected with RLV; cited from earlier work
[6] = FK-565 0.01 mg/kg i.v. alone, day 14
[7] = FK-565 0.1 mg/kg i.v. alone, day 14
[8] = FK-565 0.1 mg/kg p.o. alone, day 14
[9] = FK-565 0.01 mg/kg i.v., AZT 0 mg/kg
[10] = FK-565 1 mg/kg i.v., AZT 0 mg/kg

Q: Which results are given for `Cc1cn([C@H]2C[C@H](N=[N+]=[N-])[C@@H](CO)O2)c(=O)[nH]c1=O` [AZT, 3'-Azido-3'-deoxythymidine]?
A: survival rate (Friend leukemia virus [1]; AZT 4 mg/kg/time i.p., FK-565 0): 0; survival rate (Friend leukemia virus [1]; AZT 20 mg/kg/time i.p., FK-565 0): 25; survival rate (Friend leukemia virus [1]; AZT 100 mg/kg/time i.p., FK-565 0): 50; side effects [2]: anemia, leukopenia, neutropenia and occasional thrombocytopenia; Inhibition % (Friend leukemia virus [3]; AZT 5 mg/kg i.p. alone, day 14): 24.8%; Spleen weight (Friend leukemia virus [3]; AZT 5 mg/kg i.p. alone, day 14): 1107.8 ± 158.3 mg; Spleen weight (Friend leukemia virus [3]; AZT 20 mg/kg i.p. alone, 27 doses, FLV 2-fold dilution, 14 days after infection): 944.0 ± 104.9 mg; Inhibition % (Friend leukemia virus [3]; AZT 20 mg/kg i.p. alone, day 14): 38.1%; (%) inhibition of splenomegaly (Friend leukemia virus [4]; AZT 0.63 mg/kg i.p. alone): 33.3%; Spleen (Friend leukemia virus [4]; AZT 0.63 mg/kg i.p. alone): 633 ± 67.6 mg; (%) inhibition of splenomegaly (Friend leukemia virus [4]; AZT 2.5 mg/kg i.p. alone): 38.3%; Spleen (Friend leukemia virus [4]; AZT 2.5 mg/kg i.p. alone): 605 ± 134.9 mg; (%) inhibition of splenomegaly (Friend leukemia virus [4]; AZT 10 mg/kg i.p. alone): 49.3%; Spleen (Friend leukemia virus [4]; AZT 10 mg/kg i.p. alone): 519 ± 130.6 mg; (%) inhibition of splenomegaly (Friend leukemia virus [4]; AZT 40 mg/kg i.p. alone): 81.1%; Spleen (Friend leukemia virus [4]; AZT 40 mg/kg i.p. alone): 267 ± 51.6 mg; (%) inhibition of splenomegaly (Friend leukemia virus [4]; AZT 160 mg/kg i.p. alone): 97.4%; survival time in infected mice [5]: prolong significantly the survival time

Q: What does the source list for `CCCCCCC(=O)N[C@H](CCC(=O)N[C@@H](CCC[C@@H](N)C(=O)O)C(=O)N[C@H](C)C(=O)O)C(=O)O` [FK-565]?
A: survival rate (Friend leukemia virus [1]; FK-565 0.01 mg/kg/time i.v., AZT 0): 8; survival rate (Friend leukemia virus [1]; FK-565 1 mg/kg/time i.v., AZT 0): 17; Inhibition % (Friend leukemia virus [3]; [6]): 36.4%; Spleen weight (Friend leukemia virus [3]; [6]): 1047.0 ± 106.1 mg; Inhibition % (Friend leukemia virus [3]; [7]): 37.0%; Spleen weight (Friend leukemia virus [3]; [7]): 1038.0 ± 176.8 mg; Inhibition % (Friend leukemia virus [3]; [8]): 27.8%; Spleen weight (Friend leukemia virus [3]; [8]): 1133.0 ± 170.0 mg; Spleen weight (Friend leukemia virus [3]; FK-565 1 mg/kg i.v. alone, 4 doses, day 14): 947.0 ± 124.1 mg; Inhibition % (Friend leukemia virus [3]; FK-565 1 mg/kg i.v. alone, day 14): 46.5%; Spleen weight (Friend leukemia virus [3]; FK-565 1 mg/kg p.o. alone, 4 doses, day 14): 984.0 ± 144.8 mg; Inhibition % (Friend leukemia virus [3]; FK-565 1 mg/kg p.o. alone, day 14): 38.9%; (%) inhibition of splenomegaly (Friend leukemia virus [4]; [9]): 19.6%; Spleen (Friend leukemia virus [4]; [9]): 750 ± 119.0 mg; (%) inhibition of splenomegaly (Friend leukemia virus [4]; [10]): 55.3%; Spleen (Friend leukemia virus [4]; [10]): 487 ± 47.3 mg
